How the values were obtained:
hENPP2 [1] = target: T1, hENPP2 (UniProtKB/SwissProt Sequence ref Q13822) (Homo sapiens (Human), UniProt Q13822); assay: FS3 hENPP2 assay (fluorogenic substrate FS-3); format: biochemical; details: hENPP2, FS-3 as substrate
Description: Compound IC50 values are determined in a fluorescent hENPP2 (UniProtKB/SwissProt Sequence ref Q13822) biochemical assay using the fluorogenic autotaxin substrate FS-3 as substrate. FS-3 is a doubly labeled analog of LPC wherein the fluorophore is quenched through intramolecular energy transfer. Without hENPP2, the emission of the probe is quenched. If the substrate is hydrolyzed by hENPP2, the emission of the probe is not quenched anymore resulting in a fluorescence increase. Inhibition of hENPP2 by compounds will result in a decrease of the signal.
10 μL of a dilution series of compound, starting from 20 μM highest concentration, ⅕ dilution, is added to the wells. hENPP2 is used at a final concentration of 0.4 μg/mL or 0.64 μg/mL (it will be appreciated by the skilled person that the potency read out is independent of the enzyme concentration). The enzyme is diluted in 50 mM Tris-HCl pH 8.0, 250 mM NaCl, 5 mM KCl, 1 mM MgCl2, 1 mM CaCl2, 0.1% fatty acid free BSA in a total volume of 20 μL. Enzyme mixture is added to compounds and the resulting mixture is incubated for 30 min at room temperature under shaking. The reaction is started by the addition of 20 μL of 0.75 μM FS-3 diluted in the same buffer as described above and the mixture is incubated at 30° C. for 30 min. Fluorescence is read on the Envision (Excitation 485 nm, emission 520 nm).

hENPP2 [2] = target: T1, hENPP2; assay: LPC hENPP2 assay (choline release, LPC as substrate); format: biochemical
Outline: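 Choline released from LPC by ENPP2 is quantified after stopping with stop-developer containing 0.6 U/mL choline oxidase, 0.6 U/mL peroxidase, 1.8 mM TOOS, 1.2 mM amino-antipyrine and 20 mM EGTA. Quinoneimine dye read at 555 nm after 30 min at room temperature.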

| IC50 (hENPP2 [1]) | IC50 (hENPP2 [2]) | SMILES |
| --- | --- | --- |
| 0.01 to 25 nM | > 1000 nM | CCc1nc2ccc(N3CC4CN(S(=O)(=O)CCCN5CCOCC5)CC4C3)nn2c1N(C)c1nc(-c2ccc(F)cc2)cs1 (stereo not shown) [Compound 127, N-(2-ethyl-6-(5-(3-morpholinopropylsulfonyl)hexahydropyrrolo[3,4-c]pyrrol-2(1H)-yl)imidazo[1,2-b]pyridazin-3-yl)-4-(4-fluorophenyl)-N-methylthiazol-2-amine] |
| 0.01 to 25 nM | 500 to 1000 nM | CCc1nc2ccc(N3CCN(CCCO)CC3)nn2c1N(C)c1nc(-c2ccc(F)cc2)cs1 [Cpd 49, 3-(4-(2-ethyl-3-((4-(4-fluorophenyl)thiazol-2-yl)(methyl)amino)imidazo[1,2-b]pyridazin-6-yl)piperazin-1-yl)propan-1-ol] |
| 0.01 to 25 nM | 100 to 500 nM | CCc1nc2ccc(N3CCN(S(C)(=O)=O)[C@H](CO)C3)nn2c1N(C)c1nc(-c2ccc(F)cc2)cs1 [Cpd 67, (S)-(4-(2-ethyl-3-((4-(4-fluorophenyl)thiazol-2-yl)(methyl)amino)imidazo[1,2-b]pyridazin-6-yl)-1-(methylsulfonyl)piperazin-2-yl)methanol] |
| 0.01 to 25 nM | 100 to 500 nM | CCc1nc2ccc(N3CCC(=O)C3)nn2c1N(C)c1nc(-c2ccc(F)cc2)c(C#N)s1 [Compound 172, 2-((2-ethyl-6-(3-oxopyrrolidin-1-yl)imidazo[1,2-b]pyridazin-3-yl)(methyl)amino)-4-(4-fluorophenyl)thiazole-5-carbonitrile] |
| 0.01 to 25 nM | 500 to 1000 nM | CCc1nc2ccc(N3CCC(C(=O)NCCO)CC3)nn2c1N(C)c1nc(-c2ccc(F)cc2)cs1 [Compound 97, 1-(2-ethyl-3-((4-(4-fluorophenyl)thiazol-2-yl)(methyl)amino)imidazo[1,2-b]pyridazin-6-yl)-N-(2-hydroxyethyl)piperidine-4-carboxamide] |
| 0.01 to 25 nM | > 1000 nM | CCc1nc2ccc(N3CCN(CCOC)CC3)nn2c1N(C)c1nc(-c2ccc(F)cc2)cs1 [Cpd 53, N-(2-ethyl-6-(4-(2-methoxyethyl)piperazin-1-yl)imidazo[1,2-b]pyridazin-3-yl)-4-(4-fluorophenyl)-N-methylthiazol-2-amine] |
| 0.01 to 25 nM | 500 to 1000 nM | CCc1nc2ccc(N3CCN(S(C)(=O)=O)C(CCO)C3)nn2c1N(C)c1nc(-c2ccc(F)cc2)cs1 (stereo not shown) [Cpd 72, 2-(4-(2-ethyl-3-((4-(4-fluorophenyl)thiazol-2-yl)(methyl)amino)imidazo[1,2-b]pyridazin-6-yl)-1-(methylsulfonyl)piperazin-2-yl) ethanol] |
| 0.01 to 25 nM | 100 to 500 nM | CCc1nc2ccc(N3CCN(CC4CCCO4)CC3)nn2c1N(C)c1nc(-c2ccc(F)cc2)cs1 (stereo not shown) [Cpd 48, N-(2-ethyl-6-(4-((tetrahydrofuran-2-yl)methyl)piperazin-1-yl)imidazo[1,2-b]pyridazin-3-yl)-4-(4-fluorophenyl)-N-methylthiazol-2-amine] |
| 0.01 to 25 nM | 500 to 1000 nM | CN(c1nc(-c2ccc(F)cc2)cs1)c1c(CCC(N)=O)nc2ccc(C3CCN(S(C)(=O)=O)CC3)nn12 [Compound 197, 3-(3-((4-(4-fluorophenyl)thiazol-2-yl)(methyl)amino)-6-(1-(methylsulfonyl)piperidin-4-yl)imidazo[1,2-b]pyridazin-2-yl)propanamide] |
| 0.01 to 25 nM | > 1000 nM | CCc1nc2ccc(N3CCCC3CO)nn2c1N(C)c1nc(-c2ccc(F)cc2)cs1 (stereo not shown) [Cpd 142, (1-(2-ethyl-3-((4-(4-fluorophenyl)thiazol-2-yl)(methyl)amino)imidazo[1,2-b]pyridazin-6-yl)pyrrolidin-2-yl)methanol] |
| 0.01 to 25 nM | > 1000 nM | CCc1nc2ccc(N3CCOCC3)nn2c1N(C)c1nc(-c2ccc(F)cc2)cs1 [Cpd 78, N-(2-ethyl-6-morpholinoimidazo [1,2-b]pyridazin-3-yl)-4-(4-fluorophenyl)-N-methylthiazol-2-amine] |

— patent US9796719B2, “Compounds and pharmaceutical compositions thereof for the treatment of inflammatory disorders” (GALAPAGOS NV, priority 2013, dated 2017)
